Test results from patent US7300933B2, “Diazabicyclic biaryl derivatives” (Neurosearch A/S, priority 2002, dated 2007).
Counter-ions that a name gives are not always drawn.

Assays:
serotonin transporter = molecular target: T1, serotonin transporter (Rattus norvegicus, UniProt P31652); test: In vitro inhibition of 3H-5-hydroxytryptamine uptake in cortical synaptosomes; format: biochemical; details: 3H-5-HT 1 nM, 30 minutes at 37° C.
T1 construct: Cerebral cortices from male Wistar rats (150-200 g) are homogenized; from tissue; host or cells: rat cerebral cortex synaptosomes (P2 pellet)
Experimental: In vitro Inhibition of ^3H-5-Hydroxytryptamine Uptake in Cortical Synaptosomes
Serotonin transporters/uptake sites on nerve terminals presumably function to terminate neuronal signaling by removing serotonin from the synaptic cleft. The activity of the serotonin transporter integral protein can be measured in vitro by synaptosomal uptake of ^3H-5-hydroxytryptamine (5-HT, serotonin).
Preparations are performed at 0-4° C. Cerebral cortices from male Wistar rats (150-200 g) are homogenized for 5-10 seconds in 100 volumes of ice-cold 0.32 M sucrose containing 1 mM pargyline, using a motor driven teflon pestle in a glass homogenizing vessel. Monoamine oxidase activity is inhibited in the presence of pargyline.
The homogenate is subjected to centrifugation at 1000×g for 10 minutes. The resulting supernatant is then centrifuged at 27,000×g for 50 minutes and the supernatant is discarded. […]
Aliquots of 4.0 ml tissue suspension are added to 100 μl of test solution and 100 μl of ^3H-5-HT (1 nM, final concentration), mixed and incubated for 30 minutes at 37° C. Non-specific uptake is determined using Citalopram (1 μM, final concentration, available from Lundbeck, Denmark). […]
The amount of radioactivity on the filters is determined by conventional liquid scintillation counting. Specific uptake is calculated as the difference between total uptake and non-specific uptake. […]

[1] = molecular target: T2, α7-subtype of nicotinic receptors (Rattus norvegicus, UniProt Q05941); test: In vitro inhibition of 3H-α-bungarotoxine binding in rat brain; details: rat cerebral cortex homogenate; 3H-α-bungarotoxine 2 nM; 2 hours at 37° C.
T2 construct: Cerebral cortices from male Wistar rats (150-250 g) are homogenised; from tissue; host or cells: rat cerebral cortex membrane homogenate
T2 sequence (Q05941 23-502): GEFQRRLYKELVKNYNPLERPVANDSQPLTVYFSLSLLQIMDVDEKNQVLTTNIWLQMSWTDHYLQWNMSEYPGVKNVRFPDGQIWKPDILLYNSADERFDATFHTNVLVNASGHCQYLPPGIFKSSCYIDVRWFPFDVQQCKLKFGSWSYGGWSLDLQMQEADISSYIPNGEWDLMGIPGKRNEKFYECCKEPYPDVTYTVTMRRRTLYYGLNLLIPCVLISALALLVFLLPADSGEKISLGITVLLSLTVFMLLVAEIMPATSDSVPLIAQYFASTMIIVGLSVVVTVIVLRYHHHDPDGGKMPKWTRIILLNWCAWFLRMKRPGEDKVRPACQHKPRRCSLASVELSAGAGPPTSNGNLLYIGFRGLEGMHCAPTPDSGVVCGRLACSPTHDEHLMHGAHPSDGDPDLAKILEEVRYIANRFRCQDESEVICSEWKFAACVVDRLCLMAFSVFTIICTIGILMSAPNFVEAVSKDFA

T1 sequence (P31652 whole entry): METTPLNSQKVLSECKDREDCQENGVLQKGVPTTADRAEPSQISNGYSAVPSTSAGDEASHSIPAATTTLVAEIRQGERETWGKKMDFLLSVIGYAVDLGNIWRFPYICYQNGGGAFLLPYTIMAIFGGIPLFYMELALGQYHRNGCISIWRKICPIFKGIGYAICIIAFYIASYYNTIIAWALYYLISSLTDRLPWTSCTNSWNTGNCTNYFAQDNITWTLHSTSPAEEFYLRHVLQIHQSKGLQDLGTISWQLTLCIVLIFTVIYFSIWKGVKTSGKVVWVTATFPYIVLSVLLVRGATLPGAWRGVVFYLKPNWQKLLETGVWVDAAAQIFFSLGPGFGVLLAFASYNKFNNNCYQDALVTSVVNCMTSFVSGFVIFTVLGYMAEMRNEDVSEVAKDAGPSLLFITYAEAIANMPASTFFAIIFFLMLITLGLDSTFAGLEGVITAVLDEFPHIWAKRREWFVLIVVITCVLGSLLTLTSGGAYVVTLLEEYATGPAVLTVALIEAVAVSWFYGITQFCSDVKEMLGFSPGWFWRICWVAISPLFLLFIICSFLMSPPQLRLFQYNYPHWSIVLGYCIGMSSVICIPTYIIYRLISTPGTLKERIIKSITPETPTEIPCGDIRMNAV

SMILES | IC50 (serotonin transporter) | IC50 [1]
c1cc(-c2ccc(N3C[C@@H]4C[C@H]3CN4)nn2)cs1 [Compound 1A, 2-[6-(3-Thienyl)-3-pyridazinyl]-(1S,4S)-2,5-diazabicyclo-[2.2.1]-heptane fumaric acid salt] | 510 nM | 
c1cc(-c2cnc(N3C[C@@H]4C[C@H]3CN4)cn2)cs1 [Compound 1H, 2-[5-(3-Thienyl)-2-pyrazinyl]-(1S,4S)-2,5-diazabicyclo-[2.2.1]-heptane fumaric acid salt] | 21 nM | 260 nM
CN1C[C@@H]2C[C@H]1CN2c1ccc(-c2ccsc2)nn1 [Compound 1B, 5-Methyl-2-[6-(3-thienyl)-3-pyridazinyl]-(1S,4S)-2,5-diazabicyclo-[2.2.1]-heptane] |  | 200 nM
